Assay results taken from patent publication US20250051703A1, “EGG OPENER, EX OVO TUMOR XENOGRAFT METHOD, THERAPEUTIC COMPOUND ASSAY, THERAPEUTIC COMPOUND TESTING METHOD VIA EX OVO QUAIL EGG XENOGRAFT ASSAY” (CHILDREN'S CANCER THERAPY DEVELOPMENT INSTITUTE, priority 2021, published 2025).
pIC50: −log10 of the molar value. “Also recorded” adds a separate entry of the source.

Assays:
[1] = test system: Hep3B human hepatocellular carcinoma; details: literature (Li, et al.); cited from earlier work
[2] = test system: BT474 human breast cancer cell line; assay: BT474 xenograft CAM assay, radiance; type: in vivo; details: FIGS. 18C and 18D
[3] = test system: U48484 mouse rhabdomyosarcoma cells; assay: Quail tumor assay: U48484 tumor module xenograft on quail CAM, bioluminescence; type: in vivo
Description: U48484 mouse rhabdomyosarcoma cells were cultured, trypsinized and added to two different vials of hydrogel making a concentration of 10^6 cells per 50 μl. BEZ235 (cat #S1009, Selleck Chemicals, Houston, TX) in a solution of 0.1% DMF (cat #TS-20673, Thermo Fisher Scientific) in PBS was added to 10^6 U48484 mouse rhabdomyosarcoma cells mixed with 50 μl hydrogel for a final concentration of 500 nM BEZ235. For untreated eggs, 0.1% DMF in PBS was used as a control. 50 μl of cells/hydrogel/drug mixture were added to each scaffold and incubated for approximately 30-45 minutes at 37° C. and 100% humidity. As detailed above, a superficial injury was created on the chorioallantoic membrane and tumor module containing either drug or control was placed on top. Quail bearing tumor module models were incubated for 72 hours. Add the end of the incubation, 100 μl of PBS containing 1.5 mg of luciferin-d (cat #122799, PerkinElmer) was added to the 3D scaffold, incubated for 10 minutes in the dark, and bioluminescence was measured using a Fluorchem instrument (ProteinSimple, San Jose, CA). The quail were imaged with an 8 minute exposure for total light emission.
u48484 is a murine rhabdomyosarcoma cell line constitutively expressing firefly luciferase (available from the originating laboratory as described in Aslam et al, PDGFRβ reverses EphB4 signaling in alveolar rhabdomyosarcoma, Proc Natl Acad Sci USA. 2014 Apr. 29; 111 (17): 6383-8. doi: 10.1073/pnas. 1403608111; PMID 24733895), which is used to form a CAM xenograft as per the invention herein except being a non-human tumor cell line.
U48484 mouse rhabdomyosarcoma cells were cultured, trypsinized and added to two different vials of hydrogel making a concentration of 10^6 cells per 50 μl. […] Add the end of the incubation, 100 μl of PBS containing 1.5 mg of luciferin-d (cat #122799, Perkin Elmer) was added to the 3D scaffold, incubated for 10 minutes in the dark, and bioluminescence was measured using a Fluorchem instrument (Protein Simple, San Jose, CA). […]

[4] = test system: HepG2 xenograft CAM assay; assay: Quail dose response assay (ex ovo CAM xenograft, osmotic bead drug depot), HepG2; type: in vivo, human; details: for dose-response in HepG2 xenograft CAM assay: FIGS. 18H and 18I, radiance
Description: (§1) The tumor modules for dose response assay are generated as described above but with 5×10^5 cells per 50 μl. Drug was dissolved in DMSO for all levels to a final tumor module concentration of vehicle control, 0.3 μM, 3 μM, or 30 μM with n=6. P-10 beads (catalog #1504144, Bio-Rad, Hercules, CA, USA) are soaked in PBS at the concentration of the modules for four hours at room temperature. Approximately 50 μl of bead solution is added to a 9.5×1.5 mm plastic ring placed on top of the tumor module forming a drug depot. The drug depot provided a constant source of drug keeping the tumor module at a constant concentration despite drug leaving the module for the quail, as shown in FIG. 17. The IR820 has an exponential range between 0.001 and 1 μM as shown in the dose-response curve of FIG. 17A in lumens v. IR820 concentration.
(§2) The quail with tumor module models and drug depots are incubated for 72 hours. Afterwards, 150 μl of 15 mg/ml luciferin (cat #122799, Perkin Elmer) in PBS is added to the modules incubated for 10 minutes and then imaged on an IVIS Lumina (PerkinElmer) for between 15 seconds (for cell lines HepG2) or 1 minute (for cell lines HB243 and HB282).
Validation assays are conducted to correlate murine and human cell lines across a range of biologicals and small molecule drugs for pediatric and adult cell lines. B16F10 is a murine melanoma cell line constitutively expressing firefly luciferase (available as cat #BW124734 from Perkin-Elmer, Akron, Ohio USA), which is used to form a CAM xenograft as per the invention herein with the difference of being an adult-type cancer cell line, and radiance reflecting cell viability as impaired by drug. In FIGS. 18A-18J, to analyze drug efficacy on tumor cells, luciferin is added to the scaffold and then imaged by a CCD camera to determine the total xenograft cell viability, with the results indicated as radiance (e.g., steradians/cm^2/s) on the Y axis. See also FIG. 1 at Step 14. […]

[5] = test system: B16F10 murine melanoma cell line; assay: B16F10 xenograft CAM assay, radiance; type: in vivo; details: FIG. 18A
Description: Validation assays are conducted to correlate murine and human cell lines across a range of biologicals and small molecule drugs for pediatric and adult cell lines. B16F10 is a murine melanoma cell line constitutively expressing firefly luciferase (available as cat #BW124734 from Perkin-Elmer, Akron, Ohio USA), which is used to form a CAM xenograft as per the invention herein with the difference of being an adult-type cancer cell line, and radiance reflecting cell viability as impaired by drug. In FIGS. 18A-18J, to analyze drug efficacy on tumor cells, luciferin is added to the scaffold and then imaged by a CCD camera to determine the total xenograft cell viability, with the results indicated as radiance (e.g., steradians/cm^2/s) on the Y axis. See also FIG. 1 at Step 14.

[6] = test system: e10 quail embryo liver and kidney; details: Japanese quail, in vivo
Description: Cediranib (Cat #S1017, Selleck Chemicals LLC, Houston, TX) and erlotinib (Cat #S7786) were purchased from Selleck Chemicals and reconstituted in dimethyl sulfoxide (DMSO) following the manufacturers recommendations and diluted to 10 mM stock concentration.
Fertilized Japanese quail eggs were incubated and plated as described previously. Quail were allowed to grow ex ovo in six-well plates until the quail had passed the patterning phase (e8 based on plating date). Each experimental arm was assigned n=4 viable quail and treated with one of four experimental conditions: vehicle, cediranib, ertoltinib, and cediranib+erlotinib. […] Stock concentrations were diluted in phosphate-buffered saline (PBS) to the respective target concentrations and to a final volume of 25 μL per agent. DMSO for vehicle was set at the DMSO volume used in the cediranib+erlotinib combination (8.4 μL DMSO).
Vehicle and diluted agents were subsequently applied dropwise to the quail chorioallantoic membrane. Quail were photographed at 0 hours, 24 hours, and 48 hours.

[7] = cited from earlier work
[8] = test system: HB243 hepatoblastoma cell line; assay: In vitro % viability dose-response, HB243; type: cell-based, human; details: n=4 replicates per point
[9] = test system: HB282 hepatoblastoma cell line; assay: In vitro % viability dose-response, HB282; type: cell-based; details: Homo sapiens, n=4 replicates per point
[10] = test system: HepG2 hepatoblastoma cell line; assay: In vitro % viability dose-response, HepG2; type: cell-based; details: Homo sapiens, n=4 replicates per point
HB243 CAM xenograft = assay: Quail dose response assay (ex ovo CAM xenograft, osmotic bead drug depot), HB243; type: in vivo; details: Homo sapiens, osmotic bead delivery, 72 hours, read-out: 50% tumor growth inhibition (ex ovo IC50), HB243
Description: as §1, §2
(§3) The tumor modules for dose response assay were generated as described above but with 5×10^5 cells per 50 μl. […]

HB282 CAM xenograft = assay: Quail dose response assay (ex ovo CAM xenograft, osmotic bead drug depot), HB282; type: in vivo; details: Homo sapiens, osmotic bead delivery, 72 hours, read-out: 50% tumor growth inhibition (ex ovo IC50), HB282
Description: as §1, §2, §3

HB243 murine xenografts = assay: Murine in vivo xenograft study, HB243; set-up: species or system mouse
Description: All studies in mice were performed after receiving approval from the institutional animal care and use committee (IACUC) at Children's Cancer Therapy Development Institute and in accordance with ARRIVE Guidelines. HepG2 and HB243 were suspended in Matrigel and injected into n=10 eight week-old female nod scid gamma mice per cell line xenograft (Charles River, Hollister, CA, NOD.CB17-Prkde^scid/NCrCrl) with 2×10^6 cells per 100 μl injection. […] Volasertib (cat #S2235, Selleck Chem) was suspended in 3.75% DMSO and corn oil (cat #C8267, Sigma-Aldrich, St Louis, MO) at a concentration of 1.5 mg/ml with 100 μl injected intraperitoneally with mice chosen for the drug and control group randomly selected to minimize selection bias. The mice were imaged by intraperitoneal injection of luciferin-d according to manufacturer's instructions. The tumors were measured using calipers every 3 days and the equation for volume was […]. At the study end or if the tumors reached 1.5 cc the tumors were removed and measured.
For the murine in vivo xenograft study survival analysis, the tumor endpoint volumes for time-to-event (TTE) analysis were set at 0.75 cc and were collected to 1.5 cc. TTE was defined in days by selecting the day in which the tumor volume equaled or surpassed 0.75 cc. […] The Kaplan-Meier survival plot represents the percentage of animals surviving at different time points during the study. These percentages were generated from the TTE data using GraphPad Prism 9.0 software (Graphpad Software, San Diego, CA, https://www.graphpad.com/scientific-software/prism/). Survival curve comparisons were analyzed using the Mantel-Cox and Gehan-Breslow-Wilcox tests (95% CI) through Graph Pad Prism 9.0 software. For the quail xenograft assay, significance was determined by an unpaired two-tailed t-test with Welch's correction and a p-value less than 0.05 was considered statistically significant. Error bars represent±standard error of the mean (SEM).

HepG2 murine xenografts = assay: Murine in vivo xenograft study, HepG2; set-up: species or system mouse; details: FIG. 16F
Description: All studies in mice were performed after receiving approval from the institutional animal care and use committee (IACUC) at Children's Cancer Therapy Development Institute and in accordance with ARRIVE Guidelines. HepG2 and HB243 were suspended in Matrigel and injected into n=10 eight week-old female nod scid gamma mice per cell line xenograft (Charles River, Hollister, CA, NOD.CB17-Prkde^scid/NCrCrl) with 2×10^6 cells per 100 μl injection. […] The tumors were measured using calipers every 3 days and the equation for volume was V=L×W×H×0.5(π/6). At the study end or if the tumors reached 1.5 cc the tumors were removed and measured.
For the murine in vivo xenograft study survival analysis, the tumor endpoint volumes for time-to-event (TTE) analysis were set at 0.75 cc and were collected to 1.5 cc. […] Survival curve comparisons were analyzed using the Mantel-Cox and Gehan-Breslow-Wilcox tests (95% CI) through Graph Pad Prism 9.0 software. For the quail xenograft assay, significance was determined by an unpaired two-tailed t-test with Welch's correction and a p-value less than 0.05 was considered statistically significant. […]

[11] = test system: murine glioma cell line GL261; details: literature (Yang, et al.); cited from earlier work
[12] = test system: murine glioma cell line GL261; details: literature (Yang, et al.); cited from earlier work; remark: listed apart in the source

Cc1sc2c(c1C)C(c1ccc(Cl)cc1)=N[C@@H](CC(=O)OC(C)(C)C)c1nnc(C)n1-2 [JQ1]
efficacy against Hep3B in vivo [1]: showed efficacy

CS(=O)(=O)CCNCc1ccc(-c2ccc3ncnc(Nc4ccc(OCc5cccc(F)c5)c(Cl)c4)c3c2)o1 [lapatinib]
dose-response in BT474 xenograft CAM assay [2]: dose-response relationship

Cn1c(=O)n(-c2ccc(C(C)(C)C#N)cc2)c2c3cc(-c4cnc5ccccc5c4)ccc3ncc21 [BEZ235]
significance p, treated (n=6) vs vehicle control (n=4), tumor bioluminescence ([3]; FIG. 14, unpaired two-tailed t-test with Welch's correction): 0.0048 | inhibition of tumor growth in u48484 xenograft CAM assay ([3]; FIG. 18J): drug-related inhibition of tumor growth can be observed | inhibition at 0.5 µM ([3]; Mus musculus, Rhabdomyosarcoma cell, 500 nM in the hydrogel volume, 72 hours on CAM, read-out: reduction in U48484 tumor module bioluminescence (tumor cell viability)): 20%

Cc1ncsc1-c1ccc(CNC(=O)[C@@H]2C[C@@H](O)CN2C(=O)[C@@H](NC(=O)COCCOCCOCCNC(=O)C[C@@H]2N=C(c3ccc(Cl)cc3)c3c(sc(C)c3C)-n3c(C)nnc32)C(C)(C)C)cc1 [MZ1]
dose-response in HepG2 xenograft CAM assay [4]: dose-response relationship can be observed | dose-response in B16F10 xenograft CAM assay [5]: dose-response relationship exists

COc1cc2c(Oc3ccc4[nH]c(C)cc4c3F)ncnc2cc1OCCCN1CCCC1 [cediranib]
remaining viable quail 48 hours after dosing [6]: 3 | maximum clinically-achievable serum concentrations (Cmax) in human patients [7]: 42 ng/mL

C#Cc1cccc(Nc2ncnc3cc(OCCOC)c(OCCOC)cc23)c1 [erlotinib]
remaining viable quail 48 hours after dosing [6]: 3 | maximum clinically-achievable serum concentrations (Cmax) in human patients [7]: 1300 ng/mL

CC[C@@H]1C(=O)N(C)c2cnc(Nc3ccc(C(=O)N[C@H]4CC[C@H](N5CCN(CC6CC6)CC5)CC4)cc3OC)nc2N1C(C)C [volasertib]
pIC50 ([8]; Homo sapiens): 6.72 | pIC50 [8]: 6.55 | pIC50 [9]: 6.04 | pIC50 [10]: 6.29 | pIC50 (HB243 CAM xenograft): 5.84 | pIC50 (HB282 CAM xenograft): 5.98 | sensitivity of HepG2 ex ovo ([4]; FIG. 16D, CAM xenograft, osmotic bead delivery, 72 hours): insensitive at any concentration | dose-response in HepG2 xenograft CAM assay [4]: dose-response relationship can be observed | tumor growth of HB243 mouse xenograft relative to the control group (HB243 murine xenografts; FIG. 16E): statistically significant reduction in growth | treatment mice surviving to the endpoint longer than control (average) (HB243 murine xenografts; HB243 mouse xenograft, vs vehicle): 4.5 days | survival of HB243 murine xenografts, treatment vs control, p (Mantel-Cox test) (HB243 murine xenografts; n=4, event = tumor volume equal or greater than 0.75 cc, intraperitoneal): 0.031 | survival / response of HepG2 mouse xenograft (HepG2 murine xenografts): no increase in survival; also recorded: continued to be resistant

Cc1sc2c(c1C)C(c1ccc(Cl)cc1)=N[C@@H](CC(=O)Nc1ccc(OCCOCCOCCOCCNc3cccc4c3C(=O)N(C3CCC(=O)NC3=O)C4=O)cc1)c1nnc(C)n1-2 (stereo partly shown) [ARV-825]
efficacy against GL261 in vitro [11]: showing efficacy | efficacy against GL261 in vivo [12]: showing efficacy
